# Measured values published in patent US10827753B2, “Compositions and methods for controlling nematodes” (Monsanto Technology LLC, priority 2007, dated 2020).
# Marks after values point to notes of the source that are not given here.
# What was measured:
# Meloidogyne incognita = assay: Fall nematicidal field testing on squash microplots; assay type: in vivo; conditions: for control of root galling compared with oxamyl at an equivalent rate: 2 kg/ha
# Text: The test site was located at 3511 Highway F in New Melle, Mo., Saint Charles county. The soil was a native prairie/pasture covering silty clay loam soil. Holes were dug using a Bobcat 763 skid loader with a 12-inch auger to a depth of 18 inches. Total volume of each hole was about 1.2 cubic feet. Six cubic yards of topsoil and 9 tons of river sand were purchased from Dardenne Farms Topsoil. Mixing to a ratio of 4 volumes sand to 1 volume soil was accomplished using a trailer-mounted 9 cubic foot concrete mixer. Holes were filled and then re-filled 5 days later after settling. The mixture was 92.5% sand, 2.5% silt, and 5% clay. Organic matter was 0.2% and pH was 6.8.
# Treatments were arranged in a block design with the blocks laid out perpendicular to the primary slope and parallel to secondary slope. There are 7 inoculated controls and 5 non-inoculated controls and the distributions of disease severity appeared independent of location.
# Application rates are expressed as kg of active material per hectare, and the mg per plot is based on the surface area of the bored and filled holes (0.000008559 Ha). The DC compounds were formulated immediately before application as follows: 1) the amount required to treat all six replicates was dissolved in 300 ml of acetone, 2) for each plot 50 ml of that solution was added to a graduated cylinder with 2 ml of 12.5% Triton X100 and the volume was raised to 500 ml with tap water. The resultant mix is the same as used in the standard greenhouse assays (10% acetone, 0.05%×100). The oxamyl treatments were prepared from Vydate 2 L formulated the same way. The 500 ml was placed in a watering can and the entire volume was evenly sprinkled over the surface of the plot. No runoff occurred and pooling, if any, was short lived. The final drench volume was 0.58 ml/cm^2, compared to 0.2 ml/cm^2 used in our greenhouse, however the microplots are much deeper so the drench volume applied per soil volume treated is roughly the same.
# Meloidogyne incognita eggs were harvested over a two week period and stored at approximately 5° C. until needed. A stock of 5.6 million vermiform eggs was adjusted to 9000/ml in 620 ml. One day after treatment, two holes were made in each plot about 7 cm apart and equidistant from the squash plants. Five ml of egg suspension was pipetted into each hole, which was then sealed and the plot lightly watered. A total of 90,000 vermiform eggs were added to each plot.
# The first root evaluation was at 28 DAT. The tops were cut off and weighed immediately in the field, and the roots were carefully dug out so as not to disturb the remaining plant.
# [1] = tested on: soybean cyst nematode (SCN); assay: SCN greenhouse sand assay on soybean plants; assay type: in vivo, Heterodera glycines
# Text: Soybeans seeds are planted in 100% sand in two inch square plastic pots.
# Chemical treatment is done when the soybeans show the first trifoliate beginning to emerge about 10 to 12 days after planting. At least four hours after chemical application the nematode soybean cyst nematode (SCN) eggs are applied and 28 days after the egg inoculation the test is harvested.
# One milligram of chemistry per four pots is equal to one kilogram per hectare of chemical. A standard test uses four replications. For rates above 2 kg/ha, the desired amount of chemical is weighed into a 30 ml vial (example: 8 kg/ha rate=8 mg chemical in 30 ml vial). The chemical is dissolved in 2 ml of appropriate solvent, generally acetone. For rates below 2 kg/ha, 2 milligrams of chemistry is weighed into the vial and dissolved in 2 ml of the solvent. The appropriate amount of chemical concentrate is then pipetted into a separate 30 ml vial and solvent is added to bring the volume to 2 ml (example 0.5 kg/ha=0.5 ml of concentrate+1.5 ml solvent). Each dissolved concentrate is then brought to a total of 20 milliliters using 0.05% Triton X 100 surfactant solution.
# Pots to be treated are moist but not saturated. To each of four pots, five milliliters of the appropriate chemical solution is pipetted to the media surface making sure to avoid contact with the base of the plant. Immediately following chemical application, using a mist nozzle, the pot surface is wetted sufficiently to saturate the pot watering in the chemistry. The chemical application is done in the morning.
# Nematode eggs, either SCN or RKN, are added to distilled water to create a concentration of 1000 vermiform eggs […]. At least four hours after chemical treatment the eggs are applied to the treated pots plus non-treated check plants. A small hole about 1 cm deep is punched into the pot surface. One milliliter of the nematode egg slurry is pipetted into the hole. Immediately afterwards the hole is gently covered. Watering of the test plants is then restricted to only water as needed to prevent wilt for a period of 24 hours. After the 24 hour restricted watering, normal sub-irrigation watering is done for the duration of the test.
SMILES,"RG28 = % root galls at 28 days after treatment (Meloidogyne incognita; 2 kg ai/ha drench, squash) [%]","RG43 = % root galls at 43 days after treatment (Meloidogyne incognita; 2 kg ai/ha drench, squash) [%]",control of root galling compared with oxamyl at an equivalent rate (Meloidogyne incognita; 28 day time point),control of root galling compared with oxamyl at an equivalent rate (Meloidogyne incognita; 43 day time point),"percent control (cyst number reduction) relative to the control blank treatment ([1]; 0.1 kg/ha, test d)","percent control (cyst number reduction) relative to the control blank treatment ([1]; 0.25 kg/ha, test d)","percent control (cyst number reduction) relative to the control blank treatment ([1]; 1 kg/ha, test a)","percent control (cyst number reduction) relative to the control blank treatment ([1]; 1 kg/ha, test b)","percent control (cyst number reduction) relative to the control blank treatment ([1]; 1 kg/ha, test c)"
Brc1ccc(-c2cnc(-c3cccs3)o2)cc1 [compound 4776],19.0,26.8,statistically better than oxamyl,statistically better than oxamyl,,,,,
"CCOP(=O)(NC(C)C)Oc1ccc(SC)c(C)c1 (stereo not drawn) [Fenamiphos, fenamiphos, reference compound]",,,,,5^d percent,26^d percent,98^a percent,98^b percent,94^c percent
